Measured values published in paper PMC3830718 (Toxicology and applied pharmacology, 2013).
Where two headings read alike, the source gives them in different places.

What was measured:
[1] = format: in vivo, mice; details: mouse, kidney, intraperitoneal, 7.5 mg/kg, Metformin accumulation in the kidney
[2] = in vivo; details: mouse, AUC0–120min of metformin
[3] = target: mouse Mate1 (mMate1) (Mus musculus, UniProt Q8K0H1); experiment: Inhibition of metformin accumulation in HEK-293 cells stably expressing mMate1; format: cell-based
mouse Mate1 (mMate1), sequence (Q8K0H1 whole entry): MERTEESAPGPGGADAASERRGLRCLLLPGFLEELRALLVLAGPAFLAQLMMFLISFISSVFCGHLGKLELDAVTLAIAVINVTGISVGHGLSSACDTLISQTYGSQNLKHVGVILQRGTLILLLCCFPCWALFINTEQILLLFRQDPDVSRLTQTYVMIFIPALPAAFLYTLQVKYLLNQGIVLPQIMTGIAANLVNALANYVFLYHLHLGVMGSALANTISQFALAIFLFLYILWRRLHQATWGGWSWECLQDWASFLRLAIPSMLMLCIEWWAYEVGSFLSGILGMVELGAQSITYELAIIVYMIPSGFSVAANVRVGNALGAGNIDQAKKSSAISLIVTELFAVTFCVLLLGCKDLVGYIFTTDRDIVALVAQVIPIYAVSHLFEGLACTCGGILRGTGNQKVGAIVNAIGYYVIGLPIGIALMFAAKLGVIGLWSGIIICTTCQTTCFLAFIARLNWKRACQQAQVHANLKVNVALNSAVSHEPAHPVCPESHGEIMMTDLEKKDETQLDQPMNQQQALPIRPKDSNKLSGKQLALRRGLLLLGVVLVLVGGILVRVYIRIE

[4] = target: T1, mouse Oct2 (mOct2) (Mus musculus, UniProt O70577); experiment: Inhibition of metformin accumulation in HEK-293 cells stably expressing mOct2; format: cell-based
T1 sequence (O70577 1-553): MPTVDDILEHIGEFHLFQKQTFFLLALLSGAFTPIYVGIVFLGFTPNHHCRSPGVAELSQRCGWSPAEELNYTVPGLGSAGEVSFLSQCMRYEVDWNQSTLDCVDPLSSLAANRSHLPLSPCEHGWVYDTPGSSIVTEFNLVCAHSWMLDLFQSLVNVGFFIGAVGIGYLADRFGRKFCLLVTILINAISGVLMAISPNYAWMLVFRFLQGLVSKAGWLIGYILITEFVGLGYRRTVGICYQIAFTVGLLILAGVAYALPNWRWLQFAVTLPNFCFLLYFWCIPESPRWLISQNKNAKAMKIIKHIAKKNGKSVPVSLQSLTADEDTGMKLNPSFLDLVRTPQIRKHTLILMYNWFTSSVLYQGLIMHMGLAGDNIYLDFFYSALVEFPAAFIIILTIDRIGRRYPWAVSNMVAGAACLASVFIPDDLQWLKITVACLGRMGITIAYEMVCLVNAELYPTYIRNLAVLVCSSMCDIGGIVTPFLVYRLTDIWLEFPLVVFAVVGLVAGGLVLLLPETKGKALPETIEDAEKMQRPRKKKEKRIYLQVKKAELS

[5] = mouse, in vivo, 10 mg/kg

CN(C)C(=N)N=C(N)N [metformin]
concentration at 30 min ([1]; Mate1−/− mice, saline (Fig. 4A)): 917 ± 89.6 ng/g
concentration at 30 min ([1]; wild-type mice, saline, genotype study (Fig. 4A)): 114 ± 21.8 ng/g
AUC(0-t) [2]: 2030 ng·h/mL

Cc1nccn1CC1CCc2c(c3ccccc3n2C)C1=O (stereo not drawn) [ondansetron]
Ki [3]: 70 nM
Ki [4]: 3500 nM
Effect on hepatic platinum accumulation [5]: did not observe a significant effect
